Key:
Daoy cells [1] = experiment: Proliferation assay MTS, Daoy; format: cell-based, human; details: stable 199bMC1 and 199bSC1 clones vs empty-vector clone
Experimental: Cell proliferation was determined using the CellTiter96 AQueous Non-Radioactive Cell Proliferation Assay Kit (Promega Madison, Wis.). The cells were seeded into 96-well plates at a density of 1×10^3 cells/well in EMEM without or with FBS. After 0, 24, 48 and 72 h, MTS ([3-(4,5-dimethylthiazol-2-yl)-5-(3-carboxymethoxyphenyl)-2-(4-sulfophenyl)-2H-tetrazolium]) and PMS (phenazine methosulfate) were added to each well and after 4 h the absorbance of each well was measured at 490 nm (OD490) using Multilabel counter Victor^3 (Perkin Elmer). Each condition was performed with five wells and each experiment was repeated twice.
Proliferation assay (MTS) was made by kit CellTiter96 AQueous Non-Radioactive Cell Proliferation Assay (Promega) for 72 h. The cell lines daoy, MDA-231T and 4t1 treated with the control SNALP and with the miR 199b-5p were transferred in 96 multiwell at the concentration of 1000 and 3000 cells (daoy, MDA-231T and 4t1, respectively) in 100 μl of complete medium. For each experimental point were done 5 replicates. After 24, 48 e 72 h in each well was added 20 μl of 5× solution. After 4 h was read the absorbance of the formazane at 490 nm by Multilabel counter Victor3 (Perkin Elmer).

NHLH2 3′UTR = experiment: Luciferase reporter assay, full-length 3′UTR; format: cell-based; details: miR-199b-5p over-expression in Daoy cells
Experimental: (§1) To determine the activity of miR-199b-5p on repression of the luciferase-3′UTR fused constructs, the pREYZO-miR-199b-5p construct and the pRL-CMV-3′UTR target construct were co-transfected into HEK293 cells at a ratio of 10:1, using the Polyfect reagent (Qiagen) together with the pGL3 basic vector, in the absence and presence of 2-OM (400 nM). Luciferase activities were analysed using a Dual Luciferase Reporter Assay system (Promega, Madison, Wis.).

cyclin L1 3′UTR = experiment: Luciferase reporter assay, full-length 3′UTR; format: cell-based; details: miR-199b-5p over-expression in Daoy cells
Experimental: as §1

Nanog 3′UTR = experiment: Luciferase reporter assay, full-length 3′UTR; format: cell-based; details: miR-199b-5p over-expression in Daoy cells
Experimental: as §1

[2] = tested on: Daoy cell side population; experiment: Side population FACS (Hoechst 33342 exclusion); format: cell-based, human
Experimental: (§2) The flow cytometry analysis of S-phase fractions and cell-cycle kinetics were carried out using a FACSCalibur (Becton Dickinson, San Jose, Calif.) using CELL Quest version 3.3 software. The CD133 studies were carried out using the same instrument, with antibodies from Miltenyi Biotec (Auburn, Calif.), according to the manufacturer instructions. In brief, the cells were blocked in Fc receptor blocking reagent and incubated with an anti-CD133/1 (AC133)-phycoerythrin antibody (Miltenyi Biotec), for 10 min in the dark at 4° C. The cells were then washed and resuspended in PBS. Cells expressing higher levels of CD133 than the immunoglobulin G (IgG) controls were considered positive. For analyses of the side populations, cells […] were incubated with Hoechst 33342 (5 μmol/L; Sigma) for 90 min at 37° C. in EMEM containing 2% FBS. To ensure the correct identification of the side population cells, the cells were incubated as above with the addition of 50 μM verapamil (Sigma).

HES1 3′UTR = experiment: Luciferase reporter assay, HES1 3′UTR; format: cell-based, human; details: co-transfected miR-199b-5p expression vector
Experimental: as §1
Pre-miR-199b was cloned in a pcDNA3 modified vector (pREYZO) (D'angelo et al., 2004) using EcoRI-XhoI restriction sites. HES1 and GSK-3˜target-binding sites (3′UTRs) were cloned in tandem in the 3′UTR of 20 the pRL-cytomegalovirus (CMV) vector (Promega, Madison, Wis.) downstream of the coding region of Renilla luciferase (RL) in the XbaI site The HES1 3′UTR (including the 199b binding site) was amplified from genomic DNA with the following primers: HES1—3′UTR as […] (SEQ ID NO: 96) and HES1—3′UTR as […] (SEQ ID NO: 97), and was cloned in the TK vector (Promega, Madison, Wis.) upstream of the firefly luciferase gene, in the XbaI sites. HES1 full-length cDNA was obtained with a standard RTPCR approach from a Daoy cDNA.
The site-directed mutagenesis of the miR-199b-5p binding site in HES1 3′UTR was generated according to the manufacturer protocol of the QuikChange site-directed mutagenesis kit (Stratagene, La Jolla, Calif.). […]

Daoy cells [3] = experiment: In-vitro cell-motility assay (Boyden chamber); format: cell-based, human; details: 199bSC1 vs empty vector control, 0.5% FBS chemoattractant
Experimental: The control DAOY cell line and the stable DAOY-199bSC1 clone were used in the ‘cell-motility’ assays. Cell migration assays were performed with 8-μm pore size Transwells (Costar). The cells were suspended by trypsinization, washed, and resuspended in 100 μl serum-free DMEM containing 0.1% BSA (5×10^4 cells) and placed in the upper chamber of the Transwells. The lower chamber was filled with 600 μl serum-free DMEM supplemented with 0.5% FBS, as the chemo-attractor. The cells were allowed to migrate for 1 h at 37° C. Cells migrating to the lower side of the polycarbonate membrane were fixed with 2.5% glutaraldehyde and stained with Hematoxylin solution (Sigma). The cells were counted, and the analysis performed on three Transwells for each condition, and each experiment was repeated twice.

Daoy cells [4] = experiment: Soft-agar colony formation assay; format: cell-based, human; details: stable 199bSC1 clone vs empty-vector clone
Experimental: Daoy cells and the stable 199b clone were seeded in 1 ml EMEM supplemented with 2% FBS, containing 0.3% agarose. Cultures were maintained for two weeks and refreshed with EMEM supplemented with 2% FBS twice per week. Colonies of more than 100 μm in diameter were counted under a Leica (Nussloch, Germany) DC500 compound microscope.

Daoy cells [5] = experiment: FACS cell-cycle analysis (propidium iodine); format: cell-based, human
Experimental: as §2

[6] = stable 199bSC1 clone vs empty vector clone

With “miR-199b-5p: mature microRNA CCCAGUGUUUAGACUAUCUGUUC (SEQ ID NO:11); over-expressed from pre-miR-199b construct, e.g. stable Daoy clones 199bSC1, 199bMC1 (listed as RNA, chemistry not fully specified)” the proliferation rate (Daoy cells [1]) was “markedly reduced proliferation rates”, the “down-regulation of reporter carrying NHLH2 3′UTR” value (NHLH2 3′UTR) was “did not detect any down-regulatory effects” and the “down-regulation of reporter carrying cyclin L1 3′UTR” value (cyclin L1 3′UTR) was “did not detect any down-regulatory effects”. For the same substance, the “down-regulation of reporter carrying Nanog 3′UTR” value (Nanog 3′UTR) was “did not detect any down-regulatory effects”, the “fraction of SP cells” value ([2]; stable 199bMC1 clone (Daoy cells 5.2%)) was 0.4% and the “fraction of SP cells” value ([2]; stable 199bSC1 clone (Daoy cells 5.2%)) was 0.2%. For the same substance, the “effect on luciferase reporter with HES1 3′UTR mutated in the miR-199b binding site” value (HES1 3′UTR) was “no effect”, the “reduction of luciferase activity from wild-type HES1 3′UTR reporter” value (HES1 3′UTR; HEK293 and Daoy cell lines) was 50% and the cell motility (Daoy cells [3]) was “did not lead to a decrease in cell motility”. The “reduction in colony formation potential” value (Daoy cells [4]) was 80%, the “changes in cell cycle” value (Daoy cells [5]; stable 199bMC1 clone) was “did not show significant changes” and the “decrease in S-phase fractions” value (Daoy cells [5]; [6]) was 31%. For the same substance, the “increase in cells in G0-G1” value (Daoy cells [5]; [6]) was 15%.

Source: patent publication US9017938B2, “Use of microrna-199b-5p in medical and diagnostic field” (Advanced Accelerator Applications, priority 2009, dated 2015)
